Measured values published in patent US10537643B2, “Chemoembolization composition comprising anti-angiogenic agents” (CENTRE HOSPITALIER UNIVERSITAIRE VAUDOIS, priority 2010, dated 2020).

Assays:
[1] = Stability / precipitation of sunitinib solutions; format: physicochemical
Text: However, preparing drug-loaded beads is not a straightforward procedure, especially if they should be loaded with chemotherapeutic agents of low solubility in aqueous media. This solubility can be insufficient to reach useful therapeutic dose, such as for sorafenib tosylate. In the case where apparent solubility is sufficient to reach useful therapeutic dose, it may appear that some delayed precipitation occurs; making impossible the utilization of such preparation in a clinic setup. For example, sunitinib base or malate can be dissolved in standard media used for loading anthracycline drugs, such as doxorubicine. […] In addition, no liquid oral or parenteral solution of any sunitinib salt is commercially available, that could be used to load DEBs. […] WO 2007/090897 further discloses a method for loading beads with water insoluble chemotherapeutic agents by using organic solvents. However, such an approach is not adequate for extemporaneous preparation by the medical staff.
Advantageously, this solution is isotonic to human plasma and it is safe for the parenteral applications. Noteworthy, the sugar is not limited to glucose. Other sugars or polyol could be used such as sucrose, dextran, mannitol, sorbitol or trehalose.

[2] = sunitinib per os, unique dose of 6 mg, rabbit; according to previous pharmacological studies (FDA); cited from earlier work
[3] = cited from earlier work
[4] = Liver enzymes after administration in healthy rabbits; details: sunitinib p.o., unique dose of 6 mg, healthy rabbit
Protocol: Adult healhy male New Zealand White Rabbits (n=12) weighing between 3.2-2.8 kgs were used.
DC Beads measuring between 100-300 μm (Biocompatibles) were used.
Animals were separated in 3 groups.
Liver enzymes were measured from blood samples obtained by a catheter placed in the vein of the rabbit's ear, immediately before embolization or oral administration of the drug and 6 hours.

| Compound | precipitation in solution ([1]; standard media used for loading anthracycline drugs) | stability of the drug ([1]; HPLC analysis, sunitinib loaded DC beads preparation) | stability of sunitinib solution (precipitation) ([1]; in presence of sugar, 5% glucose, in contrast to saline or hydrochloric acid solutions) | therapeutic plasmatic concentration (Cmax) [2] | plasma concentrations ([3]; approved starting oral dose 50 mg/day) | patients with serious (grade 3 or 4) adverse events ([3]; oral sunitinib therapy) | patients requiring dose reductions ([3]; patients treated for RCC) | liver enzymes [4] |
| --- | --- | --- | --- | --- | --- | --- | --- | --- |
| CCN(CC)CCNC(=O)c1c(C)[nH]c(/C=C2\C(=O)Nc3ccc(F)cc32)c1C [sunitinib malate] | precipitate within a short period of time |  |  |  |  |  |  |  |
| CCN(CC)CCNC(=O)c1c(C)[nH]c(/C=C2\C(=O)Nc3ccc(F)cc32)c1C [sunitinib] |  | verified | stable, without any precipitation | 45 to 55 ng/mL | at least 50 ng/ml | ≤ 10% | 50% | did not cause any alteration |
